# According to US10925867B2, “Immunotherapeutic dosing regimens comprising pomalidomide and an anti-CS1 antibody for treating cancer” (Bristol-Myers Squibb Company, priority 2015, dated 2021):
# Read-outs that look alike come from different tables or passages of the source.
# Key:
# OPM2 xenograft [1] = test system: OPM2 xenograft
# Procedure: Mice with established OPM2 xenograft tumors were randomized into 2 groups with 8 mice per group and were administered one of the following sets of regimens: (A) Control group was left untreated (filled circles), elotuzumab (0.5 mg/kg, twice weekly IP for 7 doses starting d16, open circles), dexamethasone (5 mg/kg, daily IP for 7 doses starting on d16, open triangles), elotuzumab plus dexamethasone combination (filled triangles), pomalidomide (5 mg/kg, daily for 5 days orally starting on d16 and then again for 5 days on d23) plus dexamethasone combination (dashes); or (B) Control group was left untreated (filled circles), elotuzumab (0.5 mg/kg, twice weekly IP for 7 doses starting d16, open circles), pomalidomide (5 mg/kg, daily for 5 days orally starting on d16 and then again for 5 days on d23, open squares), elotuzumab (0.5 mg/kg, twice weekly IP for 10 doses starting d16) plus pomalidomide combination (filled squares), elotuzumab (10 doses) plus pomalidomide plus dexamethasone combination (x's). The data are presented as means+/−standard deviation.
# (§1) Mice with established OPM2 xenograft tumors were randomized into groups with 8 mice per group and were administered one of the following regimens: (A): untreated (control); (B): elotuzumab; (C): pomalidomide; (D): dexamethasone; (E): elotuzumab plus pomalidomide; (F): elotuzumab plus dexamethasone; (G): pomalidomide plus dexamethasone; or (H): elotuzumab plus pomalidomide plus dexamethasone. Data represent tumor weight measured in individual animals. Dosing route and regimen are described in FIG. 2 and Example 1.
# (§2) Animals: All mice were obtained from Taconic Biosciences (Germantown, N.Y.), and maintained in ammonia-free environment in a defined and pathogen-free colony. All animal procedures were approved by the Bristol-Myers Squibb (BMS) Institutional Animal Care and Use Committee. The animal care and use program at BMS has been fully accredited by the Association for Assessment and Accreditation of Laboratory Animal Care International (AAALAC).
# (§3) Animal Models: The human tumor xenograft OPM2 was grown in IcrTac scid mice (ICRPrkdcscid). Treated animals were checked daily for treatment related toxicity/mortality. Each group of animals was weighed before the initiation of treatment (Wt1) and then weighed again following the last treatment dose (Wt2). The difference in body weight (Wt2-Wt1) provides a measure of treatment-related toxicity. Additional weights were recorded at each measurement date to monitor toxicity.
# (§4) Tumor response was determined by measurement of tumors with a caliper twice a week, until the tumors reached a predetermined “target” size of 1 gm. Tumor weights (mg) were estimated from the formula: Tumor weight=(length×width2)/2.
# (§5) Tumor response end-point was expressed in terms of tumor cell kill and tumor growth inhibition. Tumor growth delay was defined as the difference in time (days) required for the treated tumors (T) to reach a predetermined target size compared to those in the control group (C). For this purpose tumor weight of a group was expressed as […] tumor weight (MTW).
# (§6) Tumor cell kill was expressed in terms of log cell kill (LCK), represented by the equation LCK=[…] where tumor volume doubling time (TVDT) was first calculated with the formula: TVDT=Median time (days) for control tumor weight to reach target size−Median time (days) for control tumor weight to reach half the target size.
# OPM2 xenograft [2] = test system: OPM2 xenograft; remark: listed apart in the source
# Procedure: FIGS. 4A-B. Study #2 (OPM2-16), Antitumor Activity, Elotuzumab Efficacy in Combination with Pomalidomide and Dexamethasone in OPM2 Multiple Myeloma Xenograft. Mice with established OPM2 xenograft tumors were randomized into 2 groups with 8 mice per group and were administered one of the following sets of regimens: (A) Control group was left untreated (filled circles), elotuzumab (0.5 mg/kg, twice weekly IP for 6 doses starting d12, open circles), dexamethasone (5 mg/kg, daily IP for 7 doses starting on d12, open triangles), elotuzumab (0.5 mg/kg, twice weekly IP for 8 doses starting d12) plus dexamethasone combination (filled triangles), pomalidomide (5 mg/kg, daily for 5 days orally starting on d12 and then again for 5 days on d19) plus dexamethasone combination (dashes); or (B) Control group was left untreated (filled circles), elotuzumab (0.5 mg/kg, twice weekly IP for 6 doses starting d12, open circles), pomalidomide (5 mg/kg, daily for 5 days orally starting on d12 and then again for 5 days on d19, open squares), elotuzumab (0.5 mg/kg, twice weekly IP for 8 doses starting d12) plus pomalidomide combination (filled squares), elotuzumab (0.5 mg/kg, twice weekly IP for 8 doses starting d12) plus pomalidomide plus dexamethasone combination (x's). The data are presented as means+/−standard deviation.
# as §1, with “FIGS. 5A-H. Study #2 (OPM2-16), Anti Tumor Activity of Elotuzumab, Pomalidomide, and Dexamethasone as Single Agent and Combination Treatment in OPM2 Multiple Myeloma Xenograft tumor model. Mice” for “Mice”, “FIG. 4” for “FIG. 2”
# as §2, §3, §4, §5, §6
# [3] = test system: refractory or relapsed and refractory MM; conditions: MM-003; cited from earlier work
# multiple myeloma [4] = conditions: cited from earlier work
# multiple myeloma [5] = conditions: treated multiple myeloma patients; cited from earlier work
# [6] = Study #1, ELO 0.5, POM 5, DEX 5 mg/kg, mice of 8
# [7] = Study #2, ELO 0.5, POM 5, DEX 5 mg/kg, mice of 8
# [8] = in combination with dexamethasone as induction therapy before ASCT
# [9] = three-drug induction: bortezomib-dexamethasone plus the named drug
smiles,measurement,setting,value
C[C@@H]1C[C@H]2[C@@H]3CCC4=CC(=O)C=C[C@]4(C)[C@@]3(F)[C@@H](O)C[C@]2(C)[C@@]1(O)C(=O)CO [Dexamethasone],Median Days to Target Size,"OPM2 xenograft [1]; Study #1, ELO 0.5 mg/kg IP 2QW from d16, POM 5 mg/kg PO QD × 5 d16, 23, DEX 5 mg/kg IP QD × 7 from d16, target size 1 gm",28.0 days
same,LCK,"OPM2 xenograft [1]; Study #1, ELO 0.5, POM 5, DEX 5 mg/kg",0.14
same,CR (complete tumor regressions),OPM2 xenograft [1]; [6],0/8
same,PR (partial tumor regressions),OPM2 xenograft [1]; [6],0/8
same,TGI,"OPM2 xenograft [1]; Study #1, ELO 0.5, POM 5, DEX 5 mg/kg, versus untreated mice",50.4%
same,Max % Weight Loss,"OPM2 xenograft [1]; mouse, in vivo",−5.7%
same,Median Days to Target Size,"OPM2 xenograft [2]; Study #2, ELO 0.5 mg/kg IP 2QW from d12, POM 5 mg/kg PO QD × 5 d12, 19, DEX 5 mg/kg IP QD × 7 from d12, target size 1 gm",25.7 days
same,LCK,"OPM2 xenograft [2]; Study #2, ELO 0.5, POM 5, DEX 5 mg/kg",0.63
same,CR (complete tumor regressions),OPM2 xenograft [2]; [7],0/8
same,PR (partial tumor regressions),OPM2 xenograft [2]; [7],0/8
same,TGI,"OPM2 xenograft [2]; Study #2, ELO 0.5, POM 5, DEX 5 mg/kg, versus untreated mice",62.8%
same,Max % Weight Loss,"OPM2 xenograft [2]; mouse, in vivo",−9.0%
same,grade 3-4 anemia,[3],37%
same,grade 3-4 bone pain,[3],5%
same,grade 3-4 fatigue,[3],6%
same,grade 3-4 neutropenia,[3],16%
same,grade 3-4 pneumonia,[3],8%
same,grade 3-4 thrombocytopenia,[3],26%
CC(C)C[C@H](NC(=O)[C@H](Cc1ccccc1)NC(=O)c1cnccn1)B(O)O [bortezomib],rates of nearly CR,multiple myeloma [4]; [8],16%
same,response rate,multiple myeloma [5],38%
O=P1(N(CCCl)CCCl)NCCCO1 (stereo not drawn) [cyclophosphamide],rates of nearly CR,multiple myeloma [4]; [9],39%
COc1cccc2c1C(=O)c1c(O)c3c(c(O)c1C2=O)C[C@@](O)(C(=O)CO)C[C@@H]3O[C@H]1C[C@H](N)[C@H](O)[C@H](C)O1 [doxorubicin],rates of nearly CR,multiple myeloma [4]; [9],7%
Nc1cccc2c1CN(C1CCC(=O)NC1=O)C2=O (stereo not drawn) [lenalidomide],rates of nearly CR,multiple myeloma [4]; [8],15%
same,rates of nearly CR,multiple myeloma [4]; [9],57%
same,response rate,multiple myeloma [5],40%-50%
O=C1CCC(N2C(=O)c3ccccc3C2=O)C(=O)N1 (stereo not drawn) [thalidomide],rates of nearly CR,multiple myeloma [4]; [8],8%
same,rates of nearly CR,multiple myeloma [4]; [9],32%
